Test [1] has as its target T1, biotinylated wild-type menin and MLL-AF9 fusion protein (menin/MLL binding) (Homo sapiens, UniProt O00255).
T1 construct: made in house; host or cells: menin: E. coli; MLL-AF9-FLAG: HEK293 cells, used as cleared lysate
T1 sequence (O00255 1-610): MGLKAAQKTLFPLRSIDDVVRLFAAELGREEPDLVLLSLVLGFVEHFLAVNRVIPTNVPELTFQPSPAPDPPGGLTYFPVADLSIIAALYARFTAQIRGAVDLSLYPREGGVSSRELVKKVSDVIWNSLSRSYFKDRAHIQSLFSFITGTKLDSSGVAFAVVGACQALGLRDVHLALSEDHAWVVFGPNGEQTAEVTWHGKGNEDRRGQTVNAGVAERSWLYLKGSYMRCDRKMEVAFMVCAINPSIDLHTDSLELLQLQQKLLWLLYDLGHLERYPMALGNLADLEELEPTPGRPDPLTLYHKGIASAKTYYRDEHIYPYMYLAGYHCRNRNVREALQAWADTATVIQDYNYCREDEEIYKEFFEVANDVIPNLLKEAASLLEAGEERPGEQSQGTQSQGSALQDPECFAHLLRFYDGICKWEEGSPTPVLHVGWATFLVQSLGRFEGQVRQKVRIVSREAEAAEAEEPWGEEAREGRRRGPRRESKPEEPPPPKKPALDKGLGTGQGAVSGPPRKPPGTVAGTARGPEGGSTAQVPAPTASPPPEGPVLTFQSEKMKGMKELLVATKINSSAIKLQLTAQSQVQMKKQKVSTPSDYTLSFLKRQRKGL
Briefly: Assay 1: menin/MLL binding AlphaLISA assay, wild-type menin. The following applies: Table 30; column head does not say wild-type or mutated menin. The method, then:
Potencies of inhibitor compounds against menin/MLL binding were assessed by AlphaLISA assay using biotinylated (1) wild-type menin or (2) mutated menin (described in Huang et al, 2012, Nature, 482, 542-546) and MLL-AF9 fusion protein bearing a FLAG epitope at its C-terminus. Menin proteins were expressed in E. coli and covalently modified with biotin using EZ-Link™ Sulfo-NHS-Biotin (ThermoFisher Cat.No. 21217) according to manufacturer's protocol. MLL1-1,396 fused to AF91-92 and the C-terminal FLAG peptide was expressed in HEK293 cells and used as a lysate cleared at 21,000×g for 10 min.
Compounds (2 μL of solutions in DMSO) were dispensed in white 96-well half-area plates (Corning Cat.No. 3693) and incubated for 30 min at RT with 5 nM biotinylated menin and appropriate amount of MLL-AF9-FLAG lysate in 40 μL of 50 mM Tris-HCl buffer pH 7.4 containing 5% (v/v) DMSO, 50 mM NaCl, 0.01% (w/v) bovine serum albumin (BSA) and 1 mM DTT. To this incubation mixture, 40 μL of AlphaLISA anti-FLAG acceptor (PerkinElmer Cat.No. AL112C) and streptavidin donor (PerkinElmer Cat.No. 6760002) beads (10 μg/mL each) was added and incubation continued at RT for 60 min. Alpha (amplified luminescent proximity homogeneous assay) signal was measured on an Envision multi-label plate reader at the end of the incubation. All steps were conducted under dim fluorescent light.
These percent inhibition values were regressed against compound concentrations in the assay using four parameter logit non-linear curve fitting (XLFit, IDBS). The IC50 values were derived from the curve fitting as inflection points on the dose-response curves and are set out in Table 30 below.
A general note: In Alpha technology, singlet oxygen from a donor bead excites a nearby acceptor bead.

Test [2] deals with human acute monocytic leukemia cell line MV-4-11. Briefly: Assay 2: cell proliferation assay (ATP quantitation, CellTiter-Glo), MV-4-11. Type of test: cell-based. Conditions: MV-4-11 cells. The method, then:
Potencies of inhibitor compounds against cell proliferation was assessed against the human acute monocytic leukemia cell line MV-4-11 (ATCC® CRL-9591™) based on ATP quantitation. MV-4-11 cells or toxicity control HL-60 cells (ATCC® CCL-240™) were incubated in 96-well tissue culture plates (1.67×10^4 cells in 200 μL culture media containing 10% FBS per well) with or without test compound for 72 h at 37° C., 5% CO2. After incubation, each well was mixed by pipetting and 95 μL from each well was transferred to a well in 96-well black OptiPlate® plates (PerkinElmer). An equal volume of CellTiter-Glo® Luminescent Cell Viability Assay reagent (Promega) was added to each well, followed by mixing for 5 min on an orbital plate shaker. Luminescence was measured on a Wallac EnVision 2104 Multilabel Reader (PerkinElmer) to quantitate ATP.
A general note: Cellular ATP, detected with luciferase, serves as a proxy for viable cell number.

Consider 15 compounds from US12312359B2 (Vitae Pharmaceuticals, LLC, priority 2016, dated 2025).

Usually IC50 stands for the concentration that inhibits the measured activity by half. The term EC50 denotes the concentration that produces a half-maximal response.

In test [1], `CCN(C(=O)c1cc(F)ccc1Oc1cncnc1N1CCC2(CCN(Cc3ccc4[nH]c(=O)[nH]c4c3)C2)C1)C(C)C` (racemic) [Example 2, N-ethyl-5-fluoro-N-isopropyl-2-((4-(7-((2-oxo-2,3-dihydro-1H-benzo[d]imidazol-5-yl)methyl)-2,7-diazaspiro[4.4]nonan-2-yl)pyrimidin-5-yl)oxy)benzamide] came in with an IC50 of less than 100 nM. For the same compound, the EC50 in test [2] (Homo sapiens, MV4-11, 72 h) is less than 100 nM.
For `Cn1c(-c2cc(F)ccc2Oc2cncnc2N2CCC3(CCN(Cc4ccc5[nH]c(=O)[nH]c5c4)C3)C2)c(C2CC2)ccc1=O` (racemic) [Example 29, 5-((7-(5-(2-(3-cyclopropyl-1-methyl-6-oxo-1,6-dihydropyridin-2-yl)-4-fluorophenoxy)pyrimidin-4-yl)-2,7-diazaspiro[4.4]nonan-2-yl)methyl)-1,3-dihydro-2H-benzo[d]imidazol-2-one], in test [1], the IC50 is less than 100 nM. In addition, in test [2] (Homo sapiens, MV4-11, 72 h), the EC50 was less than 100 nM.
`N#Cc1ccc(-c2cc(F)ccc2Oc2cncnc2N2CCC3(CCN(Cc4ccc5[nH]c(=O)[nH]c5c4)C3)C2)c(C2CC2)c1` (racemic) [Example 42, 2-cyclopropyl-5′-fluoro-2′-((4-(7-((2-oxo-2,3-dihydro-1H-benzo[d]imidazol-5-yl)methyl)-2,7-diazaspiro[4.4]nonan-2-yl)pyrimidin-5-yl)oxy)-[1,1′-biphenyl]-4-carbonitrile]: the IC50 in test [1] was less than 100 nM. Further, in test [2] (Homo sapiens, MV4-11, 72 h), the EC50 was less than 100 nM.
In test [1], `CC(C)N(C(=O)c1cc(F)ccc1Oc1cncnc1N1CCC2(CCN(Cc3ccc4[nH]c(=O)[nH]c4c3)C2)C1)C(C)C` (single isomer, unassigned) [Example 1A, 5-fluoro-N,N-diisopropyl-2-((4-(7-((2-oxo-2,3-dihydro-1H-benzo[d]imidazol-5-yl)methyl)-2,7-diazaspiro[4.4]nonan-2-yl)pyrimidin-5-yl)oxy)benzamide] returned an IC50 of less than 100 nM. Moreover, the EC50 in test [2] (Homo sapiens, MV4-11, 72 h) is less than 100 nM.
`CCN(C(=O)c1cc(F)ccc1Oc1cncnc1N1CCC2(CCN(Cc3ccc4[nH]c(=O)[nH]c4c3)C2)C1)C(C)C` (single isomer, unassigned) [Example 2A, N-ethyl-5-fluoro-N-isopropyl-2-((4-(7-((2-oxo-2,3-dihydro-1H-benzo[d]imidazol-5-yl)methyl)-2,7-diazaspiro[4.4]nonan-2-yl)pyrimidin-5-yl)oxy)benzamide] gave an IC50 in test [1] of less than 100 nM. In addition, in test [2] (72 h), the half-maximal effective concentration (EC50) was less than 100 nM.
As to `CCN(C(=O)c1cc(F)ccc1Oc1cncnc1N1CCC2(CCN(Cc3ccc4[nH]c(=O)[nH]c4c3)C2)C1)C(C)C` (single isomer, unassigned) [Example 2B, N-ethyl-5-fluoro-N-isopropyl-2-((4-(7-((2-oxo-2,3-dihydro-1H-benzo[d]imidazol-5-yl)methyl)-2,7-diazaspiro[4.4]nonan-2-yl)pyrimidin-5-yl)oxy)benzamide], the IC50 in test [1] was less than 100 nM. Besides, in test [2] (Homo sapiens, MV4-11, 72 h), the EC50 was less than 100 nM.
With `CC(C)N(C(=O)c1cc(F)ccc1Oc1cncnc1N1CCC2(CCN(Cc3ccc4c(c3)[nH]c(=O)n4CCO)C2)C1)C(C)C` (single isomer, unassigned) [Example 3A, 5-fluoro-2-((4-(7-((1-(2-hydroxyethyl)-2-oxo-2,3-dihydro-1H-benzo[d]imidazol-5-yl)methyl)-2,7-diazaspiro[4.4]nonan-2-yl)pyrimidin-5-yl)oxy)-N,N-diisopropylbenzamide], the IC50 in test [1] was less than 100 nM. In test [2] (Homo sapiens, MV4-11, 72 h), this compound registered an EC50 of less than 100 nM.
With `CC(C)N(C(=O)c1cc(F)ccc1Oc1cncnc1N1CCC2(CCN(Cc3ccc4c(c3)[nH]c(=O)n4CCO)C2)C1)C(C)C` (single isomer, unassigned) [Example 3B, 5-fluoro-2-((4-(7-((1-(2-hydroxyethyl)-2-oxo-2,3-dihydro-1H-benzo[d]imidazol-5-yl)methyl)-2,7-diazaspiro[4.4]nonan-2-yl)pyrimidin-5-yl)oxy)-N,N-diisopropylbenzamide], in test [1], the IC50 was less than 100 nM. Moreover, the EC50 in test [2] (72 h) is less than 100 nM.
As for `CCN(C(=O)c1cc(F)ccc1Oc1cncnc1N1CCC2(CCN(Cc3ccc4c(c3)[nH]c(=O)n4CCO)C2)C1)C(C)C` (single isomer, unassigned) [Example 4A, N-ethyl-5-fluoro-2-((4-(7-((1-(2-hydroxyethyl)-2-oxo-2,3-dihydro-1H-benzo[d]imidazol-5-yl)methyl)-2,7-diazaspiro[4.4]nonan-2-yl)pyrimidin-5-yl)oxy)-N-isopropylbenzamide], the IC50 in test [1] was less than 100 nM. In test [2] (Homo sapiens, MV4-11, 72 h), this compound returned an EC50 of less than 100 nM.
In test [1], `CC(C)N(C(=O)c1cc(F)ccc1Oc1cncnc1N1CCC2(CCC(N)(Cc3ccc(C#N)cc3)C2)C1)C(C)C` (single isomer, unassigned) [Example 22A, 2-((4-(7-amino-7-(4-cyanobenzyl)-2-azaspiro[4.4]nonan-2-yl)pyrimidin-5-yl)oxy)-5-fluoro-N,N-diisopropylbenzamide] registered an IC50 of less than 100 nM. This compound registered an EC50 in test [2] (Homo sapiens, MV4-11, 72 h) of no less than 1000 nM.
As for `CC(C)N(C(=O)c1cc(F)ccc1Oc1cncnc1N1CCC2(CC(O)C(Cc3ccc4[nH]c(=O)[nH]c4c3)C2)C1)C(C)C` (single isomer, unassigned) [Example 23A, 5-fluoro-2-((4-(7-hydroxy-8-((2-oxo-2,3-dihydro-1H-benzo[d]imidazol-5-yl)methyl)-2-azaspiro[4.4]nonan-2-yl)pyrimidin-5-yl)oxy)-N,N-diisopropylbenzamide], the IC50 in test [1] is less than 100 nM. For the same compound, the EC50 in test [2] (72 h) is 100 to 1000 nM.
The corresponding values for `CC(C)N(C(=O)c1cc(F)ccc1Oc1cncnc1N1CCC2(CC(O)C(Cc3ccc4[nH]c(=O)[nH]c4c3)C2)C1)C(C)C` (single isomer, unassigned) [Example 23C, 5-fluoro-2-((4-(7-hydroxy-8-((2-oxo-2,3-dihydro-1H-benzo[d]imidazol-5-yl)methyl)-2-azaspiro[4.4]nonan-2-yl)pyrimidin-5-yl)oxy)-N,N-diisopropylbenzamide] are less than 100 nM and no less than 1000 nM.
As to `CC(C)N(C(=O)c1cc(F)ccc1Oc1cncnc1N1CCC2(CC(N)C(Cc3ccc4[nH]c(=O)[nH]c4c3)C2)C1)C(C)C` (single isomer, unassigned) [Example 24A, 2-((4-(7-amino-8-((2-oxo-2,3-dihydro-1H-benzo[d]imidazol-5-yl)methyl)-2-azaspiro[4.4]nonan-2-yl)pyrimidin-5-yl)oxy)-5-fluoro-N,N-diisopropylbenzamide], the IC50 in test [1] is less than 100 nM. In addition, the EC50 in test [2] (Homo sapiens, MV4-11, 72 h) was no less than 1000 nM.
Regarding `CC(C)N(C(=O)c1cc(F)ccc1Oc1cncnc1N1CCC2(CC(N)C(Cc3ccc4[nH]c(=O)[nH]c4c3)C2)C1)C(C)C` (single isomer, unassigned) [Example 24B, 2-((4-(7-amino-8-((2-oxo-2,3-dihydro-1H-benzo[d]imidazol-5-yl)methyl)-2-azaspiro[4.4]nonan-2-yl)pyrimidin-5-yl)oxy)-5-fluoro-N,N-diisopropylbenzamide], the IC50 in test [1] is less than 100 nM. Also, the EC50 in test [2] (72 h) is no less than 1000 nM.
The corresponding values for `CC(C)N(C(=O)c1cc(F)ccc1Oc1cncnc1N1CCC2(CC(N)C(Cc3ccc4[nH]c(=O)[nH]c4c3)C2)C1)C(C)C` (single isomer, unassigned) [Example 25, 2-((4-(7-amino-8-((2-oxo-2,3-dihydro-1H-benzo[d]imidazol-5-yl)methyl)-2-azaspiro[4.4]nonan-2-yl)pyrimidin-5-yl)oxy)-5-fluoro-N,N-diisopropylbenzamide] are less than 100 nM and no less than 1000 nM.
